Measurements: patent publication US9701670B2, “Pyrazolyl-ureas as kinase inhibitors” (RESPIVERT LIMITED, priority 2013, dated 2017)
Marks after values point to notes of the source that are not given here.

How the values were obtained:
[1] = target: B-Raf (V600e) (Homo sapiens (Human), UniProt P15056, V600E); experiment: Enzyme binding assay (KINOMEscan)
Description: The kinase enzyme binding activities of compounds disclosed herein were determined using a proprietary assay which measures active site-directed competition binding to an immobilized ligand (Fabian, M. A. et al., Nature Biotechnol., 2005, 23:329-336). These assays were conducted by DiscoverX (formerly Ambit; San Diego, Calif.). The percentage inhibition produced by incubation with a test compound is calculated relative to the non-inhibited control.

[2] = tested on: SCID mice; experiment: (D) Adoptive transfer in mice; assay type: in vivo, mouse
Description: On Study day 0, female Balb/C mice are terminated and spleens obtained for CD45RB^high cell isolation (Using SCID IBD cell Separation protocol). Approximately 4×10^5 cells/mL CD45RB^high cells are then injected IP (100 μL/mouse) into female SCID animals. On study day 14, mice are weighed and randomized into treatment groups based on body weight. On Day 21, compounds are administered BID, via oral gavage, in a peanut oil vehicle at the dose levels outlined below and a dose volume of 5 mL/kg. Treatment continues until study day 42, at which point the animals are necropsied 4 hours after am administration. The colon length and weight is recorded and used as a secondary endpoint in the study as a measurement of colon oedema. The colon is then divided into six cross-sections, four of which are used for histopathology scoring (primary endpoint) and two are homogenised for cytokine analysis. Data shown is the % inhibition of the induction window between naïve animals and vehicle animals, where higher inhibition implies closer to the non-diseased, naïve, phenotype.

[3] = Pharmacokinetics, plasma and total colon tissue distribution in rats; assay type: in vivo, male Wistar rats; conditions: Rat
Description: A study was conducted by Sai Life Sciences (Hinjewadi, Pune, India) to investigate the pharmacokinetics, as well as plasma and total colon tissue distribution of the compound of Example 77 in male Wistar rats following a single intravenous or oral administration.
30 male Wistar rats were divided into two groups: Group I (p.o.: 5 mg/kg; 27 rats) and Group II (i.v.: 0.25 mg/kg; 3 rats). Animals in Group I were administered orally with an aqueous suspension formulation (having 2% HPMC and 0.5% Tween 80) of the compound of Example 77, at a dose of 5 mg/kg. Animals in Group II were administered intravenously with a solution formulation (in 5% v/v DMSO, 7.5% w/v Solutol HS 15 and 87.5% saline (0.9% w/v NaCl)) of the compound of Example 77 at a dose of 0.25 mg/kg. From each rat, blood samples (approximately 120 μL) were collected from retro orbital plexus such that samples were obtained at pre-dose, 0.05, 0.13, 0.25, 0.5, 1, 2, 4, 8, and 24 hr (i.v.) and pre-dose, 0.5, 1, 2, 4, 6, 8, 12 and 24 hr (p.o.). Immediately after collection, plasma was harvested from blood by centrifugation and stored at −70° C. until analysis. Following collection of blood sample, the animals (Group I) were humanely euthanized by carbon dioxide asphyxiation. The total colon was isolated, flushed with cold phosphate buffer saline (pH 7.4) to remove contents and weighed. The total colon tissues homogenized with ice-cold phosphate buffered saline, pH 7.4. Buffer volume to be used for homogenization was twice the weight of tissue. All the samples were stored below −70° C. until bioanalysis. Total colon tissue homogenate volume was three times. Plasma and total colon tissue samples were quantified by LC-MS/MS method (LLOQ in plasma and total colon tissue=0.5 ng/mL)

[4] = Hepatic microsomal stability; assay type: in vitro ADME, human
Description: (§1) • Microsomal stability assays were performed with incubations of test compounds at 0.1 μM (n=2, final DMSO concentration 0.25%), and carried out using pooled human, dog and rat hepatic microsomes from Xenotech (Lots 1210153, 0810143 and 1110042, respectively) at 0.25 mg protein/mL in the presence of co-factor, NADPH. The incubations were performed at 37° C. with 100 μL aliquots taken from the incubation, at 0, 2, 5, 10 and 20 minutes and reactions terminated by addition of 100 μL of acetonitrile containing carbamazepine as analytical internal standard. […] Half-life values were calculated from the relationship T1/2(min)=−0.693/λ • where λ was the slope of the Ln concentration vs time curve. • The in vitro intrinsic clearance, CIint (mL/min/kg), was calculated and scaled to hepatic extraction ratios using the following scaling parameters and formulae.
(§2) Formulae CIint(tissue clearance) mL/min/kg=[0.693/t½(min)]×[1/microsomal protein concentration mg/mL]×[mg microsomes/g liver]×[g liver/kg body weight] […] The incubations were performed at 37° C. with 100 μL samples taken from the incubation, at 0, 10, 20, 45 and 90 minutes, and reactions terminated by addition of 100 μL of acetonitrile containing carbamazepine as analytical internal standard. […] Half-life values were calculated from the relationship T1/2(min)=−0.693/λ • where λ was the slope of the Ln concentration vs time curve. • Standard compounds testosterone, midazolam and 4-methylumbelliferone are included in the assay design.

[5] = Hepatic microsomal stability; assay type: in vitro ADME; conditions: scaled from intrinsic clearance, mean of two experiments
Description: as §1, §2

[6] = tested on: 71 receptors and 26 enzymes; experiment: Diversity Profile (Cerep); assay type: binding; conditions: 300 nM
Description: Studies were conducted by Cerep (Celle-Lévescault, France) to investigate the binding of the compound of Example 77 to a diverse selection of receptors and to investigate either the inhibition or activation of a selection of enzymes (the “Diversity Profile” comprising a total of 71 receptors and 26 enzymes).

[7] = male, Wistar, plasma, intravenous 0.25 mg/kg
[8] = male, Wistar, po, 5 mg/kg p.o., Plasma
[9] = male, Wistar, total colon tissue, po, 5 mg/kg p.o., Total colon

B-Raf (V600e), sequence (P15056 whole entry V600E): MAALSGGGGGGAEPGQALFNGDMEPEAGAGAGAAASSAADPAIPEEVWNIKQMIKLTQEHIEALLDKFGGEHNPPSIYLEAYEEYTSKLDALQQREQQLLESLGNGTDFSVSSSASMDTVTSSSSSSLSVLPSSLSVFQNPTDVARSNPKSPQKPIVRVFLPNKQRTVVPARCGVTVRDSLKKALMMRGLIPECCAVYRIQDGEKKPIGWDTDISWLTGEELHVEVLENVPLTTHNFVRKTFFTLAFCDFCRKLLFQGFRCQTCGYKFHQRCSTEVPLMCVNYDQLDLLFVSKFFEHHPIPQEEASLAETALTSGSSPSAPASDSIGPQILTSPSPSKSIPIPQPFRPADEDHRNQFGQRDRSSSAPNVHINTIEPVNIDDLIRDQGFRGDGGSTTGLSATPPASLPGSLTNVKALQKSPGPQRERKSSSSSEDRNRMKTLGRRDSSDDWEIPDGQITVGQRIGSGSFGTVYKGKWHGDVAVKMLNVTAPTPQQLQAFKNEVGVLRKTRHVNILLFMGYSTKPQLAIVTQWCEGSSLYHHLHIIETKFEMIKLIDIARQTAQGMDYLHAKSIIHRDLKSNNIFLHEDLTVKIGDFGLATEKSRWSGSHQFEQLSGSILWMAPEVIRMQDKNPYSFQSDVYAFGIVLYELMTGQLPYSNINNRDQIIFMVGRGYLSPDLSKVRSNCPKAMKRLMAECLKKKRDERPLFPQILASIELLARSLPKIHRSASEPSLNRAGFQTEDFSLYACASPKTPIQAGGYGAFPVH

With `C#Cc1cc(Nc2nccc(Oc3ccc(NC(=O)Nc4cc(C(C)(C)C)nn4-c4ccc(OC)cc4)c4ccccc34)n2)cc(C(=O)NCCN2CCOCC2)c1` [Example 77, 3-((4-((4-(3-(3-(tert-Butyl)-1-(4-methoxyphenyl)-1H-pyrazol-5-yl)ureido)-naphthalen-1-yl)oxy)pyrimidin-2-yl)amino)-5-ethynyl-N-(2-morpholinoethyl)benzamide] the “effect on the binding of the kinase B-Raf (V600e) to its standard ligand” value [1] was “did not have any effect”, the “ratio of colon weight:length and relative inhibition of cytokine release” value ([2]; adoptive transfer model of colonic inflammation) was “significant activity” and the “% inhibition of IL-8 release” value ([2]; adoptive transfer mouse model, 5 mg/kg BID oral) was 68%. The “% Inhibition of colon weight:length” value ([2]; adoptive transfer mouse model, 5 mg/kg BID oral, P < 0.05 ANOVA to vehicle) was 51%*, the Fpo ([3]; 5 mg/kg p.o., Plasma) was 0.1% and the AUC(0-inf) [3, 7] was 1190 ng·h/mL. It also gave an AUC(0-t) [3, 7] of 1180 ng·h/mL, a C0 [3, 7] of 4030 ng/mL and a Vd [3, 7] of 0.1 L/kg. It also gave a clearance [3, 7] of 3.5 mL/min/kg, a half-life [3, 7] of 0.8 h and an AUC(0-inf) [3, 8] of 17.5 ng·h/mL. For the same molecule, the AUC(0-t) [3, 8] was 17.5 ng·h/mL, the Cmax [3, 8] was 2.5 ng/mL and the Tmax [3, 8] was 6 h. It also gave an AUC(0-inf) [3, 9] of 20700 ng·h/mL, an AUC(0-t) [3, 9] of 20500 ng·h/mL and a Cmax [3, 9] of 2500 ng/mL. The Tmax [3, 9] was 4 h, the hepatic clearance ([4]; conclusion from Tables 9a and 9b (hepatic microsomes and hepatocytes)) was “high hepatic clearance” and the “Mean hepatic extraction ratio (Eh)” value ([4]; human hepatic microsomes, scaled from intrinsic clearance, mean of two experiments) was 0.94. For the same molecule, the “Mean hepatic extraction ratio (Eh)” value ([5]; dog hepatic microsomes) was 0.94, the “Mean hepatic extraction ratio (Eh)” value ([5]; rat hepatic microsomes) was 0.82 and the “inhibition of the control specific binding in the receptor binding assays or enzyme assays” value [6] was “less than 25%”.
